# In US10645930B2, “Fungicidal mixtures based on prothioconazole and a strobilurin derivative” (BASF SE, priority 2002, dated 2020):
# What was measured:
# [1] = tested on: Erysiphe [syn. Blumeria] graminis forma specialis. tritici; experiment: Activity against mildew of wheat (protective, wheat seedlings cultivar Kanzler); assay type: in vivo; conditions: 7 days
# Procedure: The active compounds, separately or together, were formulated as a 10% emulsion in a mixture of 63% by weight of cyclohexanone and 27% by weight of emulsifier, and diluted with water to the desired concentration. Evaluation was carried out by determining the infected leaf areas in percent. These percentages were converted into efficacies. The efficacy (W) was determined as follows using Abbot's formula: [formula] α corresponds to the fungal infection of the treated plants in % and β corresponds to the fungal infection of the untreated (control) plants in % An efficacy of 0 means that the infection level of the treated plants corresponds to that of the untreated control plants; an efficacy of 100 means that the treated plants were not infected. The expected efficacies of the mixtures of the active compounds were determined using Colby's formula [R. S. Colby, Weeds 15, 20-22 (1967)] and compared with the observed efficacies. E=x+y−x·y/100 Colby's formula: • E expected efficacy, expressed in % of the untreated control, when using the mixture of the active compounds A and B at the concentrations a and b • x efficacy, expressed in % of the untreated control, when using the active compound A at the concentration a • y efficacy, expressed in % of the untreated control, when using the active compound B at the concentration b Leaves of wheat seedlings of the cultivar “Kanzler” grown in pots were sprayed to runoff point with an aqueous preparation of active compound which had been prepared from a stock solution comprising 10% of active compound, 85% of cyclohexanone. and 5% of emulsifier, and, 24 hours after the spray coating had dried on, the leaves were dusted with spores of mildew of wheat (Erysiphe [syn. Blumeria] graminis forma specialis. tritici). The test plants were then placed in a greenhouse at 20-24° C. and 60-90% relative atmospheric humidity. After 7 days, the extent of the development of the mildew was determined visually in % infection of the entire leaf area. The visually determined values for the percentage of diseased leaf areas were converted into efficacies as % of the untreated control. An efficacy of 0 means the same disease level as in the untreated control, an efficacy of 100 means a disease level of 0%. The expected efficacies for the active compound combinations were determined using Colby's formula mentioned above and compared with the observed efficacies.
# [2] = tested on: Puccinia recondita; experiment: Curative activity against brown rust of wheat (wheat seedlings cultivar Kanzler); assay type: in vivo; conditions: 7 days
# Procedure: The active compounds, separately or together, were formulated as a 10% emulsion in a mixture of 63% by weight of cyclohexanone and 27% by weight of emulsifier, and diluted with water to the desired concentration. Evaluation was carried out by determining the infected leaf areas in percent. These percentages were converted into efficacies. The efficacy (W) was determined as follows using Abbot's formula: [formula] α corresponds to the fungal infection of the treated plants in % and β corresponds to the fungal infection of the untreated (control) plants in % An efficacy of 0 means that the infection level of the treated plants corresponds to that of the untreated control plants; an efficacy of 100 means that the treated plants were not infected. The expected efficacies of the mixtures of the active compounds were determined using Colby's formula [R. S. Colby, Weeds 15, 20-22 (1967)] and compared with the observed efficacies. E=x+y−x·y/100 Colby's formula: • E expected efficacy, expressed in % of the untreated control, when using the mixture of the active compounds A and B at the concentrations a and b • x efficacy, expressed in % of the untreated control, when using the active compound A at the concentration a • y efficacy, expressed in % of the untreated control, when using the active compound B at the concentration b Leaves of wheat seedlings of the cultivar “Kanzler” grown in pots were dusted with spores of brown rust (Puccinia recondita). The pots were then placed in a chamber with high atmospheric humidity (90-95%), at 20-22° C. for 24 hours. During this time, the spores germinated and the germinal tubes penetrated into the leaf tissue. The next day, the infected plants were sprayed to runoff point with an aqueous formulation of active compound prepared from a stock solution comprising 10% of active compound, 85% of cyclohexanone and 5% of emulsifier. After the spray coating had dried on, the test plants were cultivated in a greenhouse at 20-22° C. and 65-70% relative atmospheric humidity for 7 days. Thereafter, the extent of the rust fungus development on the leaves was determined. The visually determined values for the percentage of diseased leaf areas were converted into efficacies as % of the untreated control. An efficacy of 0 means the same disease level as in the untreated control, an efficacy of 100 means a disease level of 0%. The expected efficacies for the combinations of active compounds were determined using Colby's formula mentioned above and compared with the observed efficacies.
# [3] = 0.015 ppm active compound in the spray liquor
# [4] = 0.06 ppm active compound in the spray liquor
# [5] = 0.25 ppm active compound in the spray liquor
# [6] = 1 ppm active compound in the spray liquor
# [7] = 4 ppm active compound in the spray liquor
SMILES,"Efficacy in % of the untreated control [1, 3]","Efficacy in % of the untreated control [1, 4]","Efficacy in % of the untreated control [1, 5]","Efficacy in % of the untreated control [1, 6]","Efficacy in % of the untreated control [1, 7]",Efficacy in % of the untreated control ([2]; 0.006 ppm active compound in the spray liquor),"Efficacy in % of the untreated control [2, 3]","Efficacy in % of the untreated control [2, 5]","Efficacy in % of the untreated control [2, 6]","Efficacy in % of the untreated control [2, 4]"
"OC(Cc1ccccc1Cl)(Cn1nc[nH]c1=S)C1(Cl)CC1 (centres unmarked) [Compound I, 2-[2-(1-chlorocyclopropyl)-3-(2-chlorophenyl)-2-hydroxypropyl]-2,4-dihydro-[1,2,4]-triazole-3-thione]",0 % of the untreated control,0 % of the untreated control,0 % of the untreated control,0 % of the untreated control,22 % of the untreated control,0 % of the untreated control,0 % of the untreated control,0 % of the untreated control,0 % of the untreated control,–
"CO/N=C(/C(=O)OC)c1ccccc1CO/N=C(\C)c1cccc(C(F)(F)F)c1 [Compound II, trifloxystrobin]",–,0 % of the untreated control,22 % of the untreated control,44 % of the untreated control,83 % of the untreated control,–,–,0 % of the untreated control,–,0 % of the untreated control
"CO/C=C(/C(=O)OC)c1ccccc1COc1cccc(C(F)(F)F)n1 [Compound III, picoxystrobin]",–,–,11 % of the untreated control,–,–,–,–,0 % of the untreated control,33 % of the untreated control,0 % of the untreated control
"COC(=O)N(OC)c1ccccc1COc1ccn(-c2ccc(Cl)cc2)n1 [Compound IV, pyraclostrobin]",–,–,0 % of the untreated control,0 % of the untreated control,–,–,–,0 % of the untreated control,–,0 % of the untreated control
